Test results as given in PMC6934184, “Selective DNA-PKcs inhibition extends the therapeutic index of localized radiotherapy and chemotherapy” (The Journal of Clinical Investigation, 2019).

Biological target: T1, PRKD2 (PKD2) (Homo sapiens, UniProt Q9BZL6)
T1 construct: purchased Thermo Fisher Scientific (Life Technologies) SelectScreen
Test: SelectScreen Z'LYTE
Format: biochemical
How it was run: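 SelectScreen broad panel; activity (Z'LYTE, Adapta) plus binding formats. ATP: Km app for CSF1R Z'LYTE; 10 for CAMK1 Adapta. Readout = % per kinase.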

T1 sequence (Q9BZL6 whole entry): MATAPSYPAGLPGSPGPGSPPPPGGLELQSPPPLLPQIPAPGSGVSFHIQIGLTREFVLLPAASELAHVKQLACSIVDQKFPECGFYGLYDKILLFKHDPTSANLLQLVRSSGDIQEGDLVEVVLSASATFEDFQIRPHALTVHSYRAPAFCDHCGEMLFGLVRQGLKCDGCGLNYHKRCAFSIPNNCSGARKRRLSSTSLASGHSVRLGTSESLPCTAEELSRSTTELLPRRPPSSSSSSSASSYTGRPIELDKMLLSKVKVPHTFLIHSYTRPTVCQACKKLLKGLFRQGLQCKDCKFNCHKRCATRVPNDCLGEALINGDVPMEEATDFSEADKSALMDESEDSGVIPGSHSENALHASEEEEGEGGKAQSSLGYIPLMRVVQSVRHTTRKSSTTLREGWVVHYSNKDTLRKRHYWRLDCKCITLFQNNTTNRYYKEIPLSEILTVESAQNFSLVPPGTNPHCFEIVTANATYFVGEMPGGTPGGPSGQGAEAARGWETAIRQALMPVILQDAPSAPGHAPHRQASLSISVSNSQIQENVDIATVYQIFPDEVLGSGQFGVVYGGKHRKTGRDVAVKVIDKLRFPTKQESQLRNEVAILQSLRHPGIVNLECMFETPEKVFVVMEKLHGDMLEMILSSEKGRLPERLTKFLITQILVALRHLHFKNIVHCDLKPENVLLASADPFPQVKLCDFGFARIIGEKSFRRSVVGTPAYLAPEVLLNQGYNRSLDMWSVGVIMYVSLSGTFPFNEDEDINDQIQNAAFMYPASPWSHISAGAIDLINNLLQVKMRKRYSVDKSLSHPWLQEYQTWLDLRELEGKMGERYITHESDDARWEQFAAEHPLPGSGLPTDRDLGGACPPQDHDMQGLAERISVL

CN(C(=O)CN1CCOCC1)c1ccc2sc3c(-c4cccc5c(=O)cc(N6CC7CCC(C6)O7)oc45)cccc3c2c1 [NU5455]
inhibition at 1 µM: -9.1%
